Reference: patent US8242134B2, “Isoquinolinone derivatives as NK3 antagonists” (H. Lundbeck A/S, priority 2008, dated 2012)

How the values were obtained:
human NK3 receptor = molecular target: T1, human NK3 receptor (Homo sapiens, UniProt P29371); assay: NK3 receptor binding assay (SPA competition binding, 125I-NKB); settings: read-out: Affinity (Ki/nM)
T1 construct: expressed in transfected cells
T1 sequence (P29371 1-465): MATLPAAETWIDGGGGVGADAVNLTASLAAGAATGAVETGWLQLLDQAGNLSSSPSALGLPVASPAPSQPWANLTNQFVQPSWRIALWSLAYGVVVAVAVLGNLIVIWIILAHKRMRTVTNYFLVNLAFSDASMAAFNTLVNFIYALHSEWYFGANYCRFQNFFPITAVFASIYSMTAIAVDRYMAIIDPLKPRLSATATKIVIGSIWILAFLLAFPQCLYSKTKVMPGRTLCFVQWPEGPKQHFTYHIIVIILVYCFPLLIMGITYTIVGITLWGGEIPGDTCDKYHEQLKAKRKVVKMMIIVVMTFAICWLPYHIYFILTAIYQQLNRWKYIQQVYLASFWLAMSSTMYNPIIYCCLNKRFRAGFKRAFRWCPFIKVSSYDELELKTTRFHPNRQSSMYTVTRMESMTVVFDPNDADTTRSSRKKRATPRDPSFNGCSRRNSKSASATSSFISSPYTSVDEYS
Experimental: Membrane preparation: BHK cells stably expressing the human NK3 receptor were seeded in harvesting plates in Dulbeccos MEM containing GlutaMax (862 mg/l), 1 mM sodium pyruvate, 10% fetal calf serum, 1% Pen/Strep, 1 mg/ml G418 and were grown at 34° C. in a humidified atmosphere containing 10% CO2. To increase receptor expression, 10 μM trichotatin A was added to the media 24 hours before harvest of the cells at a confluency of app 90%. Prior to the harvesting, the cells were washed twice with PBS without Mg^2+ og Ca^2+ and subsequently scrapped of in 10 ml PBS pr harvesting plate. The cells suspension were centrifuged at 1500×G in three minutes before resuspension in 15 mM Tris-HCl pH 7.5 buffer containing 2 mM MgCl2; 0.3 mM EDTA and 1 mM EGTA (buffer A). The cell suspension was homogenised and subsequently centrifuged at 40000×G in 30 minutes. The membrane-pellet was resuspended in buffer A containing 250 mM sucrose, aliquoted and stored at −80° C.
Affinity assay description: The assay was performed as a SPA-based competition-binding assay in a 50 mM Tris pH 7.4 assay buffer containing 120 mM NaCl, 3 mM MnCl2, 40 μg/ml bacitracin, 2 μg/ml Chymostatin, 1 μg/ml Phosphoramidon and 4 μg/ml Leupeptin. […] The assay plate was subsequently under agitation incubated for 90 min at RT.

[1] = cited from earlier work

Compound	Ki (human NK3 receptor) [nM]	other results
Cc1c(C(=O)N[C@H](c2cccc(F)c2)C2CCC2)c2cccc(F)c2c(=O)n1[C@H]1CCOC1 [Example 4r, 8-Fluoro-3-methyl-1-oxo-2-(S)-tetrahydro-furan-3-yl-1,2-dihydro-isoquinoline-4-carboxylic acid [(S)-cyclobutyl-(3-fluoro-phenyl)-methyl]-amide]	170	–
Cc1c(C(=O)N[C@H](c2cccc(F)c2)C2CC2)c2cccc(F)c2c(=O)n1[C@@H]1CCNC1 [Example 5g, 8-Fluoro-3-methyl-1-oxo-2-(R)-1-pyrrolidin-3-yl-1,2-dihydro-isoquinoline-4-carboxylic acid [(S)-cyclopropyl-(3-fluoro-phenyl)-methyl]-amide]	180	–
CC(=O)N(C)C1(c2ccccc2)CCN(CCC[C@]2(c3ccc(Cl)c(Cl)c3)CCCN(C(=O)c3ccccc3)C2)CC1 [Osanetant, osanetant]	–	effect in clinical trials versus placebo ([1]; in particular on positive symptoms of psychosis): superior to placebo
CC[C@H](NC(=O)c1c(O)c(-c2ccccc2)nc2ccccc12)c1ccccc1 [Talnetant, talnetant]	–	effect on cognitive behaviour of schizophrenics in clinical trials ([1]; in vivo): ameliorate the cognitive behaviour of schizophrenics
